Data set [1] in a line: Selectivity ratio of Ki for recombinant full lenght human PDE4A to bovine brain PDE1.
For data set [2], the target named is 3',5'-cyclic-AMP phosphodiesterase 4A (Homo sapiens, UniProt P27815). As to the kind of experiment: Inhibition of recombinant full lenght human PDE4A using fluorescent labeled cAMP as substrate after 15 mins by IMAP assay.
Data set [3] is described as follows: Inhibition of bovine brain PDE1 using fluorescent labeled cGMP as substrate after 15 mins by IMAP assay. Also noted: species or system Bos taurus.
Data set [4] in a line: Intrinsic clearance in human liver microsomes. Conditions: read-out: CLH. Type of data set: ADME. (Liver microsomes are a subcellular fraction often used to study metabolism.)
Data set [5] in a line: AUClast in C57BL/6 mouse plasma at 10 mg/kg administered through oral gavage. Type of data set: ADME, organism-based. More on the design: dose 10 mg/kg, time 0 - last, route oral.
A short description of data set [6]: AUClast in C57BL/6 mouse brain at 10 mg/kg administered through oral gavage. Type of data set: ADME, organism-based. More on the design: dose 10 mg/kg, time 0 - last, route oral.
A short description of data set [7]: Solubility of compound in PBS. It counts as physicochemical.
The nature of data set [8]: Lipophilicity, logD of compound at pH 1.7. It counts as physicochemical. Conditions: buffer.
Another data set can be described thus: in vivo. The note with it: C57BL/6, mouse, brain/plasma.
Data set [9] can be described thus: Cmax in C57BL/6 mouse brain at 10 mg/kg administered through oral gavage. Type of data set: ADME, organism-based. Also noted: dose 10 mg/kg, route oral.
The nature of data set [10]: Cmax in C57BL/6 mouse plasma at 10 mg/kg administered through oral gavage. Type of data set: ADME, organism-based. Also noted: dose 10 mg/kg, route oral.
Data set [11] is described as follows: Lipophilicity, logD of compound at pH 7.4. Type of data set: physicochemical. The note with it: buffer.

Sequence of 3',5'-cyclic-AMP phosphodiesterase 4A (P27815 whole entry): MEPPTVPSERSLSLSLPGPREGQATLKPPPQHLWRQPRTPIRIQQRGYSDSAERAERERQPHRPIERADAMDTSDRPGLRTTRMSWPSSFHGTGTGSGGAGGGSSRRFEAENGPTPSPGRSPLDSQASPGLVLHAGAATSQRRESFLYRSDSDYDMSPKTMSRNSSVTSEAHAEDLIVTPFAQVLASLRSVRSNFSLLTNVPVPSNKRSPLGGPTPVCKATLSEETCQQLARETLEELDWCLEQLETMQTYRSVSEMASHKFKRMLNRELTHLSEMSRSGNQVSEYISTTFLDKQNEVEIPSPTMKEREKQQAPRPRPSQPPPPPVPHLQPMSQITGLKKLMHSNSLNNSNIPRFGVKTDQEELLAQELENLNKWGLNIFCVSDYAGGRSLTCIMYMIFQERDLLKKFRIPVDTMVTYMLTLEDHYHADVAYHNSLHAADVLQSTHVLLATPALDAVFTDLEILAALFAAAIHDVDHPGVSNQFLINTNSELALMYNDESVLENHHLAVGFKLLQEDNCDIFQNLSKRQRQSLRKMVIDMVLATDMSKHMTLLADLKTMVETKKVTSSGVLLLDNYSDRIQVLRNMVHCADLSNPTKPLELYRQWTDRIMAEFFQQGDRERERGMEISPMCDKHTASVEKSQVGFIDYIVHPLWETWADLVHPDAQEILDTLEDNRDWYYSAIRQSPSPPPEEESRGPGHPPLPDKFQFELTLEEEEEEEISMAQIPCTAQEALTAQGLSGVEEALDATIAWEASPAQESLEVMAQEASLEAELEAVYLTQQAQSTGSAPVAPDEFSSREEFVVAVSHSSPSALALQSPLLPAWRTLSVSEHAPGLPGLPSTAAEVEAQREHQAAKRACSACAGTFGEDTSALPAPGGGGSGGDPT

Take `CN1C(=O)c2c(nn(Cc3ccc(C4CCCN4)cc3)c2Nc2ccccc2)N2C1=N[C@@H]1CCC[C@@H]12` (stereo partly specified): the Ratio Ki in data set [1] is 750. Also, the Ki (in general, the dissociation constant of the complex between target and ligand, obtained from inhibition or displacement) worked out at 1200 nM in data set [2] and 1.6 nM in [3].
As for `CN1C(=O)c2c(nn(Cc3ccc(-c4cccc(F)n4)cc3)c2N2CCCC2)N2C1=N[C@@H]1CCC[C@@H]12`, the Ratio Ki in data set [1] was determined as 29. For the same molecule, the Ki in data set [2] worked out at 4600 nM; in [3], 160 nM.
On the same counts, the results for `CNc1c2c(nn1Cc1ccc(-c3cccc(F)n3)cc1)N1C(=N[C@@H]3CCC[C@@H]31)N(C)C2=O` are 154, 4300 nM and 28 nM.
The corresponding values for `CN1C(=O)c2c(Nc3ccccc3)nn(CC3CCCC3)c2N2C1=N[C@@H]1CCC[C@@H]12` are 2.6, 2000 nM and 770 nM.
On the same counts, the results for `C[C@H]1CN=C2N(C)C(=O)c3c(nn(Cc4ccc(-c5ccccc5)cc4)c3Nc3ccccc3)N21` are 3750, 30000 nM and 8 nM.
In the case of `CN1C(=O)c2c(nn(Cc3ccc(-c4ncccc4F)cc3)c2Nc2ccccc2)N2C1=N[C@@H]1CCC[C@@H]12`, in data set [1], the Ratio Ki stood at 2740. Moreover, the CLint scaled in data set [4] was found to be 16.6 L/h/kg. The Ki in data set [2] is 200 nM; in data set [3] it was 0.073 nM.
Take `CN1C(=O)c2c(Nc3ccccc3)n[nH]c2N2C1=N[C@@H]1CCC[C@@H]12`: the Ratio Ki in [1] is 7. The molecule also returned a Ki in [3] of 1400 nM.
`CN1C(=O)c2c(nn(Cc3ccc(-c4ccccc4)cc3)c2Nc2ccccc2)N2C[C@@H](Cc3ccccc3)N=C12`: the Ratio Ki in data set [1] was found to be 33. Moreover, the Ki in data set [2] amounted to 13000 nM; in data set [3], 390 nM.
Take `O=C1NC2=N[C@@H]3CCC[C@@H]3N2c2nn(Cc3ccc(C(F)(F)F)cc3)c(Nc3ccccc3)c21`: the Ratio Ki in [1] was found to be 2. In addition, the CLint scaled in data set [4] was determined as 1.32 L/h/kg. The Ki in data set [2] came to 550 nM; in data set [3] it was 290 nM.
`CN1C(=O)c2c(nn(Cc3ccc(-c4ccccc4)cc3)c2Nc2ccccc2)N2C[C@@H](CO)N=C12`: in [1], the Ratio Ki was determined as 683. Besides, the Ki in data set [2] is 4100 nM; in [3], 6 nM.
Consider `CN1C(=O)c2c(nn(Cc3ccc(-c4cccc(F)n4)cc3)c2Nc2ccccc2)N2C1=N[C@H]1CCC[C@H]12`, for which the CLint scaled in data set [4] was determined as 3.06 L/h/kg. For the same molecule, in [3], affinity was put at a Ki of 5.4 nM.
On to `CN1C(=O)c2c(nn(Cc3ccc(S(N)(=O)=O)cc3)c2Nc2ccccc2)N2C1=N[C@@H]1CCC[C@@H]12`, for which the AUC(0-t) – broadly, exposure summed from dosing to a finite time, without extrapolation to infinity – turned out to be 0.785 µg·h/mL in [5] and 0.015 µg·h/mL in data set [6]. The Ratio Ki in [1] stood at 857. For the same molecule, the solubility (commonly how much of the substance goes into solution per volume) in data set [7] is over 100 µM. The Ki in data set [2] turned out to be 1200 nM; in [3], 1.4 nM. Also, the pH-dependent lipophilicity (logD) (commonly lipophilicity at a set pH, counting ionised and neutral species) in [8] is -0.96; in data set [11], 1.96. Besides, in the data set “in vivo”, the partition ratio (Kp) (usually the ratio of the level in a tissue or fluid to that in plasma or blood) was found to be 0.02. In addition, the Cmax (in general, the highest concentration seen after dosing) in [9] came to 0.016 µg/mL; in data set [10] it was 0.65 µg/mL.
Take `CN1C(=O)c2c(nn(Cc3ccc(-c4cccc(F)n4)cc3)c2N(C)c2ccccc2)N2C1=N[C@@H]1CCC[C@@H]12`: in [1], the Ratio Ki was 24. The figures for the Ki in data set [2] and in data set [3] were 740 nM and 31 nM, respectively.
With `CN1C(=O)c2c(nn(Cc3ccc(-c4cccc(F)n4)cc3)c2NCc2ccccc2)N2C1=N[C@@H]1CCC[C@@H]12`, the Ratio Ki in data set [1] was 816. Further, the Ki was found to be 4000 nM in [2] and 4.9 nM in data set [3].
On the same counts, the results for `CC(C)[C@@H]1CN2C(=N1)N(C)C(=O)c1c2nn(Cc2ccc(-c3ccccc3)cc2)c1Nc1ccccc1` are 652, 1500 nM and 2.3 nM.
For the molecule `CN1C(=O)c2c(nn(Cc3ccc(-c4cccc(F)n4)cc3)c2Nc2ccncc2)N2C1=N[C@@H]1CCC[C@@H]12`, the Ratio Ki in data set [1] is 12. Besides, the figures for the inhibitory constant (Ki) in data set [2] and in data set [3] were 370 nM and 31 nM, respectively.
`CN1C(=O)c2c(nn(Cc3ccc(-c4ccccn4)cc3)c2Nc2ccccc2)N2C1=N[C@H]1CCC[C@H]12`: the CLint scaled in data set [4] was found to be 4.32 L/h/kg. Further, the inhibition constant Ki in [2] turned out to be 8400 nM; in data set [3] it was 5.3 nM.
Regarding `CN1Cc2c(nn(Cc3ccc(C(F)(F)F)cc3)c2Nc2ccccc2)N2C1=N[C@@H]1CCC[C@@H]12`, in data set [1], the Ratio Ki was determined as 841. Also, in [4], the CLint scaled was 3.84 L/h/kg. The figures for the Ki in [2] and in data set [3] were 37000 nM and 44 nM, respectively.
With `CN1C(=O)c2c(nn(Cc3ccc(-c4ccccc4)cc3)c2Nc2ccccc2)N2C[C@@H](COCc3ccccc3)N=C12`, in data set [1], the Ratio Ki is over 400. Also, the figures for the Ki in [2] and in data set [3] were over 100000 nM and 250 nM, respectively.
The corresponding values for `CN1C(=O)c2c(nn(Cc3ccc(-c4cccc(F)n4)cc3)c2N)N2C1=N[C@@H]1CCC[C@@H]12` are 414, 2400 nM and 5.8 nM.
The corresponding values for `CN1C(=O)c2c(nn(Cc3ccc(-c4cccc(F)n4)cc3)c2NC2CCCC2)N2C1=N[C@@H]1CCC[C@@H]12` are 229, 5500 nM and 24 nM.
Regarding `CN1C(=O)c2c(nn(Cc3ccc(S(C)(=O)=O)cc3)c2Nc2ccccc2)N2C1=N[C@@H]1CCC[C@@H]12`, the Ratio Ki in data set [1] amounted to 133. Also, the Ki worked out at 65 nM in data set [2] and 0.49 nM in data set [3].
The corresponding values for `CN1C(=O)c2c(nn(Cc3ccc(-c4ccccc4)cc3)c2Nc2ccccc2)N2CC(C)(C)CN=C12` are 2060, 9900 nM and 4.8 nM.
Turning to `CC(C)CNc1c2c(nn1Cc1ccc(-c3cccc(F)n3)cc1)N1C(=N[C@@H]3CCC[C@@H]31)N(C)C2=O`, in [1], the Ratio Ki was found to be 851. The Ki in data set [2] stood at 6300 nM; in data set [3], 7.4 nM.
Consider `CCCC(C)Nc1c2c(nn1Cc1ccc(-c3cccc(F)n3)cc1)N1C(=N[C@@H]3CCC[C@@H]31)N(C)C2=O` (stereo partly specified), for which the Ratio Ki in [1] was 2000. In addition, the figures for the inhibition constant Ki in [2] and in [3] were 2600 nM and 1.3 nM, respectively.
The corresponding values for `CN1C(=O)c2c(nn(Cc3ccc(-c4ccccc4)cc3)c2Nc2ccccc2)N2CCCN=C12` are over 1500, over 100000 nM and 65 nM.
The corresponding values for `C[C@@H]1CN2C(=N1)N(C)C(=O)c1c2nn(Cc2ccc(-c3ccccc3)cc2)c1Nc1ccccc1` are 1030, 3400 nM and 3.3 nM.
As to `CN1C(=N)c2c(nn(Cc3ccc(C(F)(F)F)cc3)c2Nc2ccccc2)N2C1=N[C@@H]1CCC[C@@H]12`, the Ratio Ki in data set [1] turned out to be 6.4. In addition, the CLint scaled in data set [4] worked out at 1.92 L/h/kg. Moreover, the inhibition constant Ki in data set [2] stood at 18000 nM; in data set [3] it was 2800 nM.
Take `CN1C(=O)c2c(nn(Cc3ccc(-c4ccccc4)cc3)c2Nc2ccccc2)N2CC(C3CCOC3)N=C12` (stereo unspecified): the Ratio Ki in [1] was 857. The Ki was determined as 12000 nM in data set [2] and 14 nM in data set [3].
With `CN1C(=O)c2c(nn(Cc3ccc(-c4cccc(F)n4)cc3)c2NC2CCCCC2)N2C1=N[C@@H]1CCC[C@@H]12`, the Ratio Ki in data set [1] was found to be 571. Moreover, the Ki worked out at 1600 nM in data set [2] and 2.8 nM in data set [3].
Take `CN1C(=O)c2c(nn(Cc3ccc(-c4cccc(F)n4)cc3)c2Nc2ccccc2)N2C1=N[C@@H]1CCC[C@@H]12` [LENRISPODUN]: the Ki in [3] was determined as 0.15 nM.
Regarding `CN1C(=O)c2c(nn(Cc3ccc(-c4ccc(F)cn4)cc3)c2Nc2ccccc2)N2C1=N[C@@H]1CCC[C@@H]12`, the Ratio Ki in [1] came out at 6760. Besides, the CLint scaled in [4] was determined as 7.5 L/h/kg. Besides, the values for the inhibition constant (Ki) in [2] and in [3] were 500 nM and 0.074 nM, respectively.
Regarding `CCCNc1c2c(nn1Cc1ccc(-c3cccc(F)n3)cc1)N1C(=N[C@@H]3CCC[C@@H]31)N(C)C2=O`, in data set [1], the Ratio Ki was found to be 413. Further, the Ki is 6200 nM in data set [2] and 15 nM in data set [3].
Take `CN1C(=O)c2c(nn(Cc3ccc(-c4cc(F)ccn4)cc3)c2Nc2ccccc2)N2C1=N[C@@H]1CCC[C@@H]12`: the Ratio Ki in data set [1] worked out at 5320. In addition, the CLint scaled in data set [4] was 13.1 L/h/kg. For the same molecule, the inhibition constant (Ki) in data set [2] came out at 330 nM; in data set [3] it was 0.062 nM.
For `CN1C(=O)c2c(nn(Cc3ccc(C4CCCN4C)cc3)c2Nc2ccccc2)N2C1=N[C@@H]1CCC[C@@H]12` (stereo partly specified), the Ratio Ki in data set [1] was 1150. In addition, the Ki in [2] turned out to be 3100 nM; in data set [3] it was 2.7 nM.
The corresponding values for `CN1C(=O)c2c(nn(Cc3ccc(-c4ccc(F)cc4)cc3)c2Nc2ccccc2)N2C1=N[C@@H]1CCC[C@@H]12` are 1120, 460 nM and 0.41 nM.
On to `CN1Cc2c(nn(Cc3ccc(-c4ccccn4)cc3)c2Nc2ccccc2)N2C1=N[C@@H]1CCC[C@@H]12`, for which the Ratio Ki in [1] is 720. For the same molecule, the CLint scaled in data set [4] worked out at 3.54 L/h/kg. The Ki in [2] is 18000 nM; in [3], 25 nM.
For the molecule `CC(C)Nc1c2c(nn1Cc1ccc(-c3cccc(F)n3)cc1)N1C(=N[C@@H]3CCC[C@@H]31)N(C)C2=O`, in [1], the Ratio Ki was 458. In addition, the Ki was 5500 nM in data set [2] and 12 nM in [3].
On the same counts, the results for `CN1C(=O)c2c(nn(Cc3ccc(-c4ccccc4)cc3)c2Nc2ccccc2)N2CCN=C12` are 1520, 44000 nM and 29 nM.
As for `CN1C(=O)c2c(nn(Cc3ccc(-c4cccc(F)n4)cc3)c2N(C)C)N2C1=N[C@@H]1CCC[C@@H]12`, in data set [1], the Ratio Ki amounted to 9.2. The figures for the Ki in [2] and in data set [3] were 1100 nM and 120 nM, respectively.

(Values after ChEMBL document CHEMBL3769405, “Discovery of Potent and Selective Inhibitors of Phosphodiesterase 1 for the Treatment of Cognitive Impairment Associated with Neurodegenerative and Neuropsychiatric Diseases” (J Med Chem, 2016).)
